According to US10738028B2, “Spiro three-membered ring, spiro five-membered ring peptide deformylase inhibitor and use thereof in antibacteria and anti-tumor” (priority 2016, dated 2020):

Assays:
Type in all cases: cell-based
[1] = system: methicillin-resistant Staphylococcus aureus (MRSA); assay: MIC, two-fold agar dilution (CLSI), clinical isolates
How it was run: (§1)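 Susceptibility was tested using CLSI two-fold agar dilution against the strains examined.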

[2] = system: Escherichia coli (including ESBLs, non-ESBLs); assay: as above
How it was run: as §1

[3] = system: Enterococcus faecium (EFM); assay: as above
How it was run: as §1

[4] = system: Moraxella catarrhalis (BCA); assay: as above
How it was run: as §1

[5] = system: Enterococcus faecalis (EFA); assay: as above
How it was run: as §1

[6] = system: methicillin-sensitive Staphylococcus aureus (MSSA); assay: as above
How it was run: as §1

[7] = system: Streptococcus pneoumoniae (SPN); assay: as above
How it was run: as §1

[8] = system: methicillin-resistant Staphylococcus epidermidis (MRSE); assay: as above
How it was run: as §1

[9] = system: methicillin-sensitive Staphylococcus epidermidis (MSSE); assay: as above
How it was run: as §1

[10] = system: HCT-116 colorectal cancer cell line; assay: CCK-8 proliferation inhibition; conditions: Homo sapiens, HCT-116, 72 h, concentration of 30 μM; 72 hours; CCK-8; read-out: HCT116 inhibition rate/%
How it was run: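 2000 cells/well, McCoy's 5A + 10% newborn bovine serum; overnight attach, 37° C./5% CO2. Cpd from DMSO stock diluted in medium, 72 h. Readout: CCK-8 (1:10). Ctrl 1‰ DMSO.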

CCCC[C@H](CC(=O)NO)C(=O)N1CC2(CC2)C[C@H]1C(=O)Nc1ccncn1 [Example 45]
Anti-bacterial activity (MIC), strain MRSA 15-1 ([1]; clinical isolate MRSA 15-1): 0.5 µg/mL | Anti-bacterial activity (MIC), strain MRSA 15-2 ([1]; clinical isolate MRSA 15-2): 1 µg/mL | Anti-bacterial activity (MIC), strain MRSA 15-3 ([1]; clinical isolate MRSA 15-3): 1 µg/mL | Anti-bacterial activity (MIC), strain MRSA 15-4 ([1]; clinical isolate MRSA 15-4): 1 µg/mL | Anti-bacterial activity (MIC), strain ECO+ 15-1 ([2]; clinical isolate ECO+ 15-1): 32 µg/mL | Anti-bacterial activity (MIC), strain ECO+ 15-2 ([2]; clinical isolate ECO+ 15-2): > 32 µg/mL | Anti-bacterial activity (MIC), strain ECO+ 15-3 ([2]; clinical isolate ECO+ 15-3): > 32 µg/mL | Anti-bacterial activity (MIC), strain ECO+ 15-4 ([2]; clinical isolate ECO+ 15-4): 1 µg/mL | Anti-bacterial activity (MIC), strain ECO− 15-1 ([2]; clinical isolate ECO− 15-1): 32 µg/mL | Anti-bacterial activity (MIC), strain ECO− 15-2 ([2]; clinical isolate ECO− 15-2): > 32 µg/mL | Anti-bacterial activity (MIC), strain ECO− 15-3 ([2]; clinical isolate ECO− 15-3): > 32 µg/mL | Anti-bacterial activity (MIC), strain ECO− 15-4 ([2]; clinical isolate ECO− 15-4): > 32 µg/mL | Anti-bacterial activity (MIC), strain EFM 15-1 ([3]; clinical isolate EFM 15-1): > 32 µg/mL | Anti-bacterial activity (MIC), strain EFM 15-2 ([3]; clinical isolate EFM 15-2): > 32 µg/mL | Anti-bacterial activity (MIC), strain EFM 15-3 ([3]; clinical isolate EFM 15-3): > 32 µg/mL | Anti-bacterial activity (MIC), strain EFM 15-4 ([3]; clinical isolate EFM 15-4): > 32 µg/mL | Anti-bacterial activity (MIC), strain EFM 15-5 ([3]; clinical isolate EFM 15-5): 0.5 µg/mL | Anti-bacterial activity (MIC), strain EFM 15-6 ([3]; clinical isolate EFM 15-6): 0.5 µg/mL | Anti-bacterial activity (MIC), strain BCA 14-1 ([4]; clinical isolate BCA 14-1): 1 µg/mL | Anti-bacterial activity (MIC), strain BCA 14-4 ([4]; clinical isolate BCA 14-4): 1 µg/mL | Anti-bacterial activity (MIC), strain BCA 14-5 ([4]; clinical isolate BCA 14-5): 0.5 µg/mL | Anti-bacterial activity (MIC), strain BCA 14-6 ([4]; clinical isolate BCA 14-6): 0.5 µg/mL | Anti-bacterial activity (MIC), strain BCA 14-7 ([4]; clinical isolate BCA 14-7): 1 µg/mL | Anti-bacterial activity (MIC), strain BCA 14-8 ([4]; clinical isolate BCA 14-8): 1 µg/mL | Anti-bacterial activity (MIC), strain BCA 14-10 ([4]; clinical isolate BCA 14-10): 1 µg/mL | Anti-bacterial activity (MIC), strain EFA 15-1 ([5]; clinical isolate EFA 15-1): > 32 µg/mL | Anti-bacterial activity (MIC), strain EFA 15-2 ([5]; clinical isolate EFA 15-2): > 32 µg/mL | Anti-bacterial activity (MIC), strain EFA 15-3 ([5]; clinical isolate EFA 15-3): > 32 µg/mL | Anti-bacterial activity (MIC), strain EFA 15-4 ([5]; clinical isolate EFA 15-4): > 32 µg/mL | Anti-bacterial activity (MIC), strain EFA 15-5 ([5]; clinical isolate EFA 15-5): > 32 µg/mL | Anti-bacterial activity (MIC), strain EFA 15-6 ([5]; clinical isolate EFA 15-6): > 32 µg/mL | Anti-bacterial activity (MIC), strain EFA 15-9 ([5]; clinical isolate EFA 15-9): 16 µg/mL | Anti-bacterial activity (MIC), strain MSSA 15-3 ([6]; clinical isolate MSSA 15-3): 0.5 µg/mL | Anti-bacterial activity (MIC), strain MSSA 15-4 ([6]; clinical isolate MSSA 15-4): 1 µg/mL | Anti-bacterial activity (MIC), strain MSSA 15-5 ([6]; clinical isolate MSSA 15-5): 1 µg/mL | Anti-bacterial activity (MIC), strain MSSA 15-6 ([6]; clinical isolate MSSA 15-6): > 32 µg/mL | Anti-bacterial activity (MIC), strain SPN 16-2 ([7]; clinical isolate SPN 16-2): 0.5 µg/mL | Anti-bacterial activity (MIC), strain SPN 16-4 ([7]; clinical isolate SPN 16-4): 0.5 µg/mL | Anti-bacterial activity (MIC), strain MRSE 15-1 ([8]; clinical isolate MRSE 15-1): 1 µg/mL | Anti-bacterial activity (MIC), strain MRSE 15-2 ([8]; clinical isolate MRSE 15-2): 1 µg/mL | Anti-bacterial activity (MIC), strain MRSE 15-3 ([8]; clinical isolate MRSE 15-3): 1 µg/mL | Anti-bacterial activity (MIC), strain MRSE 15-7 ([8]; clinical isolate MRSE 15-7): 1 µg/mL | Anti-bacterial activity (MIC), strain MSSE 15-3 ([9]; clinical isolate MSSE 15-3): 1 µg/mL | Anti-bacterial activity (MIC), strain MSSE 15-4 ([9]; clinical isolate MSSE 15-4): 1 µg/mL | Anti-bacterial activity (MIC), strain MSSE 15-5 ([9]; clinical isolate MSSE 15-5): 1 µg/mL | Anti-bacterial activity (MIC), strain MSSE 15-6 ([9]; clinical isolate MSSE 15-6): 1 µg/mL | inhibition at 30 µM [10]: 25%
